Values of other authors in paper PMC9516332 (Frontiers in Oncology, 2022).
Like-named read-outs stand apart in the source and are kept apart here.

How the values were obtained:
Settings in all cases: cited from earlier work
[1] = target: panel of 255 wild-type kinases (Homo sapiens, UniProt P06241)
[2] = target: panel of 255 wild-type kinases (Homo sapiens, UniProt P41240)
[3] = target: panel of 255 wild-type kinases (Homo sapiens, UniProt Q13153)
[4] = target: panel of 255 wild-type kinases (Homo sapiens, UniProt Q14289)
[5] = target: panel of 255 wild-type kinases (Homo sapiens, UniProt Q16539)
[6] = target: T1, panel of 255 wild-type kinases (Homo sapiens, UniProt O14757)
T1 sequence (O14757 1-476): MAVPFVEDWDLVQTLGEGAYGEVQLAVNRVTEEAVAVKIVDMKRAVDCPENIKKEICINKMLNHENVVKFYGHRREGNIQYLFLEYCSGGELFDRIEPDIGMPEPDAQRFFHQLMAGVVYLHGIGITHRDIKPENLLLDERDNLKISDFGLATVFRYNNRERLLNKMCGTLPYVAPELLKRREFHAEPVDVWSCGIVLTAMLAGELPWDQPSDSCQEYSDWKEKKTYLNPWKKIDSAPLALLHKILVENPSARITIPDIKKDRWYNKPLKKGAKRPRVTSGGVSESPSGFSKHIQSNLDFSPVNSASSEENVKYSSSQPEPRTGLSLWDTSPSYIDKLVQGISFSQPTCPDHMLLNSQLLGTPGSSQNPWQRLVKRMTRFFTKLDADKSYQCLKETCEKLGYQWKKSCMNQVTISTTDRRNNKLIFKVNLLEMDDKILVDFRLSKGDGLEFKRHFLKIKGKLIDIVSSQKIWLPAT

[7] = target: panel of 255 wild-type kinases (Homo sapiens, UniProt Q08345)
[8] = target: T2, panel of 255 wild-type kinases (Homo sapiens, UniProt Q15139)
T2 sequence (Q15139 1-912): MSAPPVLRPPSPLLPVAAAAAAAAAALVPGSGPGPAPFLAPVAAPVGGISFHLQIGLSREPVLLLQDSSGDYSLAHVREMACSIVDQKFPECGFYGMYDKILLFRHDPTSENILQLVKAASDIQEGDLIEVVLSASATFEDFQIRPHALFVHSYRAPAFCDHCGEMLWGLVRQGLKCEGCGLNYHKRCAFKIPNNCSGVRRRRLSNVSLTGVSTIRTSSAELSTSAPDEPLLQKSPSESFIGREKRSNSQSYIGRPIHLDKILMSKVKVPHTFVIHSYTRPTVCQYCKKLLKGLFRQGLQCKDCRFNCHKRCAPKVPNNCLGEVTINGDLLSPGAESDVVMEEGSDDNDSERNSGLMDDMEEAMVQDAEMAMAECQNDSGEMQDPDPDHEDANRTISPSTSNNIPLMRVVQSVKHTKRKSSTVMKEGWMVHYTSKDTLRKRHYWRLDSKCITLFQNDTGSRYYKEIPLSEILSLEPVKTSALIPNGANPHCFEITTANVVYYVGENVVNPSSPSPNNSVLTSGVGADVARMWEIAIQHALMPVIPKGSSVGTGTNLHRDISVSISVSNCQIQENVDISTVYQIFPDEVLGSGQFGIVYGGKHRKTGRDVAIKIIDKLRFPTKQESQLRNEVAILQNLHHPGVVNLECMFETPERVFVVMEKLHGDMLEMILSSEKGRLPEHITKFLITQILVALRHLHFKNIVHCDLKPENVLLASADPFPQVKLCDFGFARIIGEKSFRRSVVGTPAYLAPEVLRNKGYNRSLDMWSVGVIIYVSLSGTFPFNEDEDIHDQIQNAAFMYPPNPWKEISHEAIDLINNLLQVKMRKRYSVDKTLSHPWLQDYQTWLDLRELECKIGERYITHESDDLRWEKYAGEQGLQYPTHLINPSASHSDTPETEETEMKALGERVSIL

[9] = target: panel of 255 wild-type kinases (Homo sapiens, UniProt P19784)
[10] = target: panel of 255 wild-type kinases (Homo sapiens, UniProt P49761)
[11] = target: panel of 255 wild-type kinases (Homo sapiens, UniProt Q9H0K1)
[12] = target: panel of 255 wild-type kinases (Homo sapiens, UniProt Q9HCP0)
[13] = target: panel of 255 wild-type kinases (Homo sapiens, UniProt P00533)

## COc1cc(N2CCC(N3CCN(C)CC3)CC2)ccc1Nc1ncc(Cl)c(Nc2ccccc2P(C)(C)=O)n1 [brigatinib]
[1]
  %-inhibition at 1 µmol/L, FYN [isoform a]: 69%
[2]
  %-inhibition at 1 µmol/L, CSK: 9%
[3]
  %-inhibition, PAK1: 4.27%
[4]
  %-inhibition at 1 µmol/L, PYK2: 104%
[5]
  %-inhibition, p38α: -0.837%
[6]
  %-inhibition CHK1: 96%
[7]
  %-inhibition at 1 µmol/L, DDR1: 84%
[8]
  %-inhibition at 1 µmol/L, PKD1: 74%
[9]
  %-inhibition at 1 µmol/L, CK2α2/β: -4%
[10]
  %-inhibition at 1 µmol/L, CLK3: 33%
[11]
  %-inhibition at 1 µmol/L, QIK: 100%
[12]
  %-inhibition at 1 µmol/L, CK1γ1: 1.13%
[13]
  %-inhibition at 1 µmol/L, EGFR: 97%

## O=C(c1ccc(F)c(F)c1Nc1ccc(I)cc1F)N1CC(O)([C@@H]2CCCCN2)C1 [cobimetinib]
[1]; kinase FYN [isoform a], 1 µmol/L single concentration, ref DOI: 10.1158/1535-7163.MCT-18-0877
  %-inhibition at 1 µmol/L, FYN [isoform a]: 0.258%
[2]; kinase CSK, 1 µmol/L single concentration, ref DOI: 10.1158/1535-7163.MCT-18-0877
  %-inhibition at 1 µmol/L, CSK: 5.62%
[3]; PAK1, 1 µmol/L single concentration, ref DOI: 10.1158/1535-7163.MCT-18-0877
  %-inhibition, PAK1: 3.21%
[4]; kinase PYK2, 1 µmol/L single concentration, ref DOI: 10.1158/1535-7163.MCT-18-0877
  %-inhibition at 1 µmol/L, PYK2: 2.5%
[5]; p38α, 1 µmol/L single concentration, ref DOI: 10.1158/1535-7163.MCT-18-0877
  %-inhibition, p38α: -5.49%
[6]; CHK1 kinase assay, 1 µmol/L single concentration, ref DOI: 10.1158/1535-7163.MCT-18-0877
  %-inhibition CHK1: 9%
[7]; kinase DDR1, 1 µmol/L single concentration, ref DOI: 10.1158/1535-7163.MCT-18-0877
  %-inhibition at 1 µmol/L, DDR1: 6.37%
[8]; kinase PKD1, 1 µmol/L single concentration, ref DOI: 10.1158/1535-7163.MCT-18-0877
  %-inhibition at 1 µmol/L, PKD1: -5%
[9]; kinase CK2α2/β, 1 µmol/L single concentration, ref DOI: 10.1158/1535-7163.MCT-18-0877
  %-inhibition at 1 µmol/L, CK2α2/β: -6%
[10]; kinase CLK3, 1 µmol/L single concentration, ref DOI: 10.1158/1535-7163.MCT-18-0877
  %-inhibition at 1 µmol/L, CLK3: 4%
[11]; kinase QIK, 1 µmol/L single concentration, ref DOI: 10.1158/1535-7163.MCT-18-0877
  %-inhibition at 1 µmol/L, QIK: 2.37%
[12]; kinase CK1γ1, 1 µmol/L single concentration, ref DOI: 10.1158/1535-7163.MCT-18-0877
  %-inhibition at 1 µmol/L, CK1γ1: 2.67%
[13]; kinase EGFR, 1 µmol/L single concentration, ref DOI: 10.1158/1535-7163.MCT-18-0877
  %-inhibition at 1 µmol/L, EGFR: 8%

## CCCS(=O)(=O)Nc1ccc(F)c(C(=O)c2c[nH]c3ncc(-c4ccc(Cl)cc4)cc23)c1F [vemurafenib]
[1]; kinase FYN [isoform a], 1 µmol/L single concentration, ref DOI: 10.1371/journal.pone.0092146
  %-inhibition at 1 µmol/L, FYN [isoform a]: 81%
[2]; kinase CSK, 1 µmol/L single concentration, ref DOI: 10.1371/journal.pone.0092146
  %-inhibition at 1 µmol/L, CSK: 76%
[3]; PAK1, 1 µmol/L single concentration, ref DOI: 10.1371/journal.pone.0092146
  %-inhibition, PAK1: -5%
[4]; kinase PYK2, 1 µmol/L single concentration, ref DOI: 10.1371/journal.pone.0092146
  %-inhibition at 1 µmol/L, PYK2: 0.921%
[5]; p38α, 1 µmol/L single concentration, ref DOI: 10.1371/journal.pone.0092146
  %-inhibition, p38α: 10%
[6]; CHK1 kinase assay, 1 µmol/L single concentration, ref DOI: 10.1371/journal.pone.0092146
  %-inhibition CHK1: 4%
[7]; kinase DDR1, 1 µmol/L single concentration, ref DOI: 10.1371/journal.pone.0092146
  %-inhibition at 1 µmol/L, DDR1: 52%
[8]; kinase PKD1, 1 µmol/L single concentration, ref DOI: 10.1371/journal.pone.0092146
  %-inhibition at 1 µmol/L, PKD1: 43%
[9]; kinase CK2α2/β, 1 µmol/L single concentration, ref DOI: 10.1371/journal.pone.0092146
  %-inhibition at 1 µmol/L, CK2α2/β: -6.56%
[10]; kinase CLK3, 1 µmol/L single concentration, ref DOI: 10.1371/journal.pone.0092146
  %-inhibition at 1 µmol/L, CLK3: -14%
[11]; kinase QIK, 1 µmol/L single concentration, ref DOI: 10.1371/journal.pone.0092146
  %-inhibition at 1 µmol/L, QIK: 6%
[12]; kinase CK1γ1, 1 µmol/L single concentration, ref DOI: 10.1371/journal.pone.0092146
  %-inhibition at 1 µmol/L, CK1γ1: -2%
[13]; kinase EGFR, 1 µmol/L single concentration, ref DOI: 10.1371/journal.pone.0092146
  %-inhibition at 1 µmol/L, EGFR: 7%
